The values that follow come from US20260130933A1, “PHARMACEUTICAL COMPOSITION FOR PREVENTION OR TREATMENT OF NEPHROPATHY AND/OR DIABETES MELLITUS, COMPRISING ENAVOGLIFLOZIN” (DAEWOONG PHARMACEUTICAL CO., LTD., priority 2022, published 2026).

Data set [1] can be described thus: Example 4: subgroup of patients with proteinuria (baseline UACR of 30 to 3500 g/kg) of Examples 1 to 3, percent change in UACR at week 24. The class given is in vivo, human. The settings on record: for UACR decrease at week 24 compared to baseline: proteinuria subgroup. An excerpt:
Among the patient groups that received the test drugs and the control drug of Examples 1 to 3, a group of patients with proteinuria (baseline UACR of 30 to 3500 g/kg) was additionally analyzed.
Among the patients in Example 1, a subgroup with baseline UACR of 30 to 3500 g/kg was classified as a group of patients with proteinuria.
Among the patients in Example 2, a subgroup with the baseline UACR of 30 to 3500 g/kg was classified as a group of patients with proteinuria.
Similarly, among the patients in Example 3, a subgroup with the baseline UACR of 30 to 3500 g/kg was classified as a group of patients with proteinuria.

A short description of data set [2]: Example 6: phase 1 trial, 0.5 mg enavogliflozin in type 2 diabetes patients grouped by eGFR: urinary glucose excretion (UGE) and eGFR. The format is in vivo, human. The method, then: The subjects were divided into the following four groups according to eGFR values, and urinary glucose excretion (UGE) and eGFR were estimated according to the administration of 0.5 mg of enavogliflozin as the test drug (stages 1 and 3: repeated administration (1 week), stages 2 and 4: single administration).

Data set [3] in a line: Phase 2 clinical trial, blood glucose lowering vs placebo. The settings on record: 0.1 mg, 0.3 mg and 0.5 mg groups. The class given is in vivo, human.
A short description of another data set: Pharmacokinetics (Tmax). The format is in vivo. Conditions: blood, oral.
The nature of data set [4]: Dissolution test method 2 of the Korean Pharmacopoeia (paddle method). The format is physicochemical. Conditions: average particle size greater than 15 μm. How it is done:
The dissolution rate of the active ingredient in the pharmaceutical composition affects the maximum blood concentration (Cmax) and the blood concentration-area under the blood concentration-time curve (AUC) when administering the drug, that is to say, in order to achieve appropriate Cmax and AUC, it is important to adjust the dissolution rate of the pharmaceutical composition. […] The above dissolution rate was measured under the condition of the dissolved solution 1.2 in accordance of the dissolution test method 2 of the Korean Pharmacopoeia (paddle method). For specific conditions, refer to the following experimental examples.

Where [5] appears, read: week 24, Example 2 (with metformin), per-protocol set, UACR 30-3500 g/kg at baseline.
Where [6] appears, read: week 24, Example 3 (with metformin and gemigliptin), per-protocol set, UACR 30-3500 g/kg baseline.
Setting [7] is: week 24, Example 1 (monotherapy), full analysis set, UACR 30-3500 g/kg at baseline.

Structures are written as SMILES.

Consider `CCOc1ccc(Cc2cc([C@@H]3O[C@H](CO)[C@@H](O)[C@H](O)[C@H]3O)ccc2Cl)cc1` [Dapagliflozin, reference compound], for which, in data set [1] (setting [5]), the “Percent change from baseline in UACR, Mean” value (from here on “Percent change … Mean”) is on record as −26.01%; the “Percent change from baseline in UACR, Median” value (“Percent change … Median” below) is given as −39.48%; the “UACR, Mean” value came out at 93.37 g/kg; the “UACR, Median” value was 45.70 g/kg. Also, in data set [1] (setting [6]), the “Percent change … Mean” value was −13.09%; the “Percent change … Median” value is −39.84%; the “UACR, Mean” value was found to be 80.60 g/kg; the “UACR, Median” value stood at 43.10 g/kg.

For the compound `OC[C@H]1O[C@@H](c2cc(Cc3ccc(C4CC4)cc3)c(Cl)c3c2CCO3)[C@H](O)[C@@H](O)[C@@H]1O` [Enavogliflozin, (2S,3R,4R,5S,6R)-2-(7-chloro-6 (4-cyclopropylbenzyl)-2,3-dihydrobenzofuran-4-yl)-6-(hydroxymethyl)tetrahydro-2H-pyran-3,4,5-triol], the “UACR decrease at week 24 compared to baseline” value (“UACR decrease” for short) in data set [1] (dual combination therapy with metformin) stood at 47.35%. Besides, in data set [1] (enavogliflozin administered alone), the “UACR decrease” value turned out to be 46.06%. Besides, in data set [1] (triple combination therapy with metformin and gemigliptin), the “UACR decrease” value is 36.03%. Also, the “UACR change, decrease compared to the dapagliflozin-administered patient group” value in data set [1] (two studies (Examples 2 and 3) combined) is given as 20.72%. Also, in data set [1] (setting [7]), the “Percent change from baseline in UACR, Difference (enavogliflozin 0.3 mg − Placebo)” value is recorded as −50.89%; the “Percent change … Mean” value is on record as −46.06%; the “Percent change … Median” value is −64.48%; the “UACR, Mean” value is recorded as 70.29 g/kg. In addition, the “UACR, Median” value in data set [1] (setting [7]) was 26.05 g/kg. Further, in data set [1] (setting [5]), the “Percent change from baseline in UACR, Difference (enavogliflozin 0.3 mg − dapagliflozin 10 mg)” value is −21.33%; the “Percent change … Mean” value was −47.35%; the “Percent change … Median” value is recorded as −48.74%; the “UACR, Mean” value was 45.64 g/kg. Besides, the “UACR, Median” value in data set [1] (setting [5]) turned out to be 27.65 g/kg. Moreover, in data set [1] (setting [6]), the “Percent change from baseline in UACR, Difference (enavogliflozin 0.3 mg − dapagliflozin 10 mg)” value is on record as −22.94%; the “Percent change … Mean” value is recorded as −36.03%; the “Percent change … Median” value is recorded as −55.97%; the “UACR, Mean” value is given as 75.40 g/kg. In addition, the “UACR, Median” value in data set [1] (setting [6]) was found to be 46.80 g/kg. The “Urinary glucose excretion (UGE) after administration” value in data set [2] (all renal function groups) is listed as “increased”. For the same compound, in data set [2] (patient group with 30≤eGFR<60), the “Change in eGFR” value was “eGFR reduction was confirmed”. In addition, the “Blood glucose-lowering effect compared to a placebo” value in data set [3] is reported as “statistically significant blood glucose-lowering effect”. Besides, in the data set “Pharmacokinetics (Tmax)”, the time to peak (Tmax) lay within 1 to 2 h. Besides, in data set [4], the 5-minute dissolution rate entry is given as “less than 40%” and the 30-minute dissolution rate result is listed as “less than 80%”.

Broadly, the Tmax is the time from dosing to the highest level.
